Test results as given in paper PMC11259170, “Small-molecule probe for IBD risk variant GPR65 I231L alters cytokine signaling networks through positive allosteric modulation” (Science Advances, 2024).
Read-outs that look alike come from different tables or passages of the source.

What was measured:
[1] = test system: GFP-expressing HeLa cells; experiment: cAMP detection in HeLa expression cell line, GFP control; assay type: cell-based, human; conditions: Homo sapiens, HeLa; for Emax: relative to 100uM forskolin (100%) and DMSO (0%), read-out: GFP Max Activity %
Description: (§1) HeLa stable expression cell lines were produced by lentiviral transduction. Briefly, lentiviral plasmids for each GPCR with a C-terminal V5 Tag ([…]) were made in a pLX317 backbone using competent Escherichia coli (New England Biolabs, C3050H). Lenti-X 293 T (Takara, 632810) cells were transfected with the lentiviral plasmids to produce virus. Low-passage HeLa cells (American Type Culture Collection, CCL-2) were then transduced with lentivirus. After 48 hours, HeLa cells were cultured under selection with puromycin (3 μg/ml) and allowed to recover and expand before storing stocks in liquid nitrogen.
(§2) cAMP was measured in cells using the Lance Ultra cAMP Kit. HeLa cells were cultured under puromycin (3 μg/ml) selection. One day before the experiment, cells were seeded in T75 flasks and allowed to adhere overnight. On the day of the experiment, cells were washed twice with Dulbecco’s PBS and lifted using prewarmed 1× versene solution (Gibco, 15040066). Cells were counted in HBSS (Gibco, 14025092) and then resuspended in stimulation buffer prepared according to the manufacturer’s instructions and adjusted to pH 7.2 using 1 M sodium hydroxide. Cells were added to the plate at a density of 1500 cells per well in white opaque 384-well assay ready microplates containing 100 nl of 10 mM compound in DMSO. Cells were stimulated for 30 min at RT, then lysed and incubated with detection reagents for 1 hour in the dark at RT. Plates were read on BMG Labtech PHERAstar FSX (excitation, 337 nm; emission, 620 and 665 nm). Data analysis was performed using GraphPad Prism.

hGPR65 = biological target: T1, hGPR65 (Homo sapiens, UniProt Q8IYL9); experiment: cAMP detection in HeLa expression cell line, hGPR65; assay type: cell-based; conditions: for EC50 / Emax: NA = no activity; for Emax: HeLa, relative to 100uM forskolin (100%) and DMSO (0%), read-out: hGPR Max Activity %
T1 construct: expressed in transfected cells; host or cells: HeLa (ATCC CCL-2), lentiviral transduction, pLX317
Description: as §1, §2

mGPR65 = biological target: T2, mGPR65 (Mus musculus, UniProt Q61038); experiment: cAMP detection in HeLa expression cell line, mGPR65; assay type: cell-based; conditions: for Emax: HeLa, relative to 100uM forskolin (100%) and DMSO (0%), read-out: mGPR Max Activity %
T2 construct: expressed in transfected cells; host or cells: HeLa (ATCC CCL-2), lentiviral transduction, pLX317
Description: as §1, §2

[2] = 1st GFP column pair, NA = no activity
[3] = 1st hGPR column pair, read-out: hGPR EC50
[4] = 2nd hGPR column pair, read-out: hGPR EC50
[5] = 1st mGPR column pair, NA = no activity, read-out: mGPR EC50
[6] = 2nd mGPR column pair, NA = no activity, read-out: mGPR EC50
[7] = 2nd mGPR column pair, NA = no activity
[8] = 2nd GFP column pair, NA = no activity

T1 sequence (Q8IYL9 whole entry): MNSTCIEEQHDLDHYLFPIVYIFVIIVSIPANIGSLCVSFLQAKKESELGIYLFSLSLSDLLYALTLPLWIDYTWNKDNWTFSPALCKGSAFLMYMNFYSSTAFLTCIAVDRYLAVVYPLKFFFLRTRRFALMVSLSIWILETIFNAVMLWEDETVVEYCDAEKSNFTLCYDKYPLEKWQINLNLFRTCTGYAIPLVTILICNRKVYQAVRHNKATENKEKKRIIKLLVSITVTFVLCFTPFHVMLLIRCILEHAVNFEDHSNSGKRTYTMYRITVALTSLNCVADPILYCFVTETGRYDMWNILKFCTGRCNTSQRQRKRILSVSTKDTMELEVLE
T2 sequence (Q61038 whole entry): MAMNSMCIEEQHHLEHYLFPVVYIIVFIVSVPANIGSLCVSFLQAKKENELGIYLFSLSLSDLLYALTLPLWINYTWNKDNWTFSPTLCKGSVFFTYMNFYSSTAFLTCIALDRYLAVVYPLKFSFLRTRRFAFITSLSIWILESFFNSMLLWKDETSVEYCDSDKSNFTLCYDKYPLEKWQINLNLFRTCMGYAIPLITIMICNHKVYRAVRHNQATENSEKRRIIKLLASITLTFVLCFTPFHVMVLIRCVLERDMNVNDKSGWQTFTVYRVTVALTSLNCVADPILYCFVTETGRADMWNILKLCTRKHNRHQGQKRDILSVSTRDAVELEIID

Row | SMILES | EC50 [1, 2] [nM] | Emax [1, 2] [%] | EC50 (hGPR65; [3]) [µM] | EC50 (hGPR65; [4]) [µM] | Emax (hGPR65; 1st hGPR column pair) [%] | Emax (hGPR65; 2nd hGPR column pair) [%] | EC50 (mGPR65; [5]) [µM] | EC50 (mGPR65; [6]) [µM] | Emax (mGPR65; [7]) [%] | Emax (mGPR65; NA = no activity) [%] | other results
1 | Cc1ccc(NC(=O)c2cnn3c(O)cc(-c4ccc(COC(C)C)cc4)nc23)cn1 [BRD5071] | 24900 | 8.1 | 0.991 | 1.89 | 74.2 | 60.4 | 1.54 | 1.61 | 61.2 | 60.5 | 
2 | Cc1ncc(NC(=O)c2cnn3c(O)cc(-c4ccc(COC(C)C)cc4)nc23)cn1 [BRD5072] | 6880 | 3.5 | 8.18 | 6.93 | 59.1 | 48.2 | 4.79 | 5.04 | 49 | 51.1 | EC50 [1, 8]: 376 nM; Emax [1, 8]: 1.42%
3 | O=C(Nc1ccccc1)c1cnn2c(O)cc(COc3ccccc3)nc12 [BRD5802] | 41400 | 5.04 | 89.8 |  | 55.7 |  |  |  |  |  | 
4 | Cc1ccc(NC(=O)c2cnn3c(O)cc(-c4ccc(COC(C)C)cc4)nc23)cc1 [BRD5928] |  |  |  |  | 82.5 | 80 |  |  | 54.1 | 61.1 | EC50 (hGPR65; hGPR EC50 (uM)): 0.271 µM; EC50 (hGPR65; hGPR EC50): 0.629 µM; cAMP production relative to BRD2813, hGPR65 (hGPR65; pH 7.2): induced high hGPR65 activity; EC50 (mGPR65; mGPR EC50 (uM), 2nd mGPR column pair, NA = no activity): 0.494 µM; EC50 (mGPR65; mGPR EC50 (uM), NA = no activity): 0.635 µM; cAMP production relative to BRD2813, mGPR65 (mGPR65; pH 7.2): substantially increasing cAMP production
5 | Cc1ccc(NC(=O)c2cnn3c(O)cc(COc4ccccc4)nc23)cc1 [BRD6694] |  |  | 8.03 | 4.64 | 20.7 | 22.4 |  | 19.7 | 5.79 |  | 
6 | CCOCc1ccc(-c2cc(O)n3ncc(C(=O)Nc4ccc(C)cc4)c3n2)cc1 [BRD6745] |  |  | 0.667 | 0.413 | 83.5 | 81.6 | 0.554 | 0.511 | 48.9 | 52.9 | 
7 | Cc1ccc(NC(=O)c2cnn3c(O)cc(-c4ccc5ccccc5c4)nc23)cc1 [BRD7102] |  |  | 0.272 | 0.151 | 79.7 | 72.5 | 0.191 | 0.269 | 35.2 | 40.7 | potency and total cAMP production relative to BRD2813 (hGPR65; receptor not given): improved potency but had little effect on total cAMP production
8 | Cc1ccc(NC(=O)c2cnn3c(O)cc(Cc4ccc5ccccc5c4)nc23)cc1 [BRD7330] |  |  |  |  |  |  |  |  |  |  | EC50 ([1]; SAR cAMP assay, first EC50/Max pair of GFP control columns): 2320 nM; Emax ([1]; first pair): 1.96%; Emax (mGPR65; first pair): 11.6%; EC50 (mGPR65; SAR cAMP assay, first EC50/Max pair, read-out: mGPR EC50): 0.383 µM
9 | CCN(CC)C(=O)c1cnn2c(O)cc(-c3ccc(COC)cc3)nc12 [BRD7582] | 6330 | 10.8 | 2.64 |  | 4.89 |  |  |  |  |  | 
10 | O=C(O)c1cnn2c(O)cc(-c3ccc(F)cc3)nc12 [BRD7884] | 9180 | 3.25 |  |  |  |  |  |  |  |  | 
11 | COc1ncccc1-c1cc(O)n2ncc(C(=O)Nc3ccc(Cl)cc3)c2n1 [BRD8007] | 6140 | 6.72 |  |  |  |  | 2.17 |  |  | 20 | 
12 | CCn1cc(Cl)c(-c2cc(O)n3ncc(C(N)=O)c3n2)n1 [BRD8068] | 52900 | 40.7 |  |  |  |  | 16.4 |  |  | 13.4 | 
13 | COc1ccc(-c2cc(O)n3ncc(C(=O)Nc4ccc(C)cc4)c3n2)cc1 [BRD9965] |  |  | 0.734 | 0.924 | 73.8 | 66 | 24.2 | 32.3 | -39 | -56.6 | 
14 | COCc1ccc(-c2cc(O)n3ncc(C(=O)Nc4ccc(NC(C)=O)cc4)c3n2)cc1 [BRD9998] | 91800 | 3.25 | 17.6 |  | 1.34 |  |  |  |  |  | 
